Laboratory results: patent US11040963B2 (priority 2017, dated 2021)
pIC50: −log10 of the molar value.

Legend:
[1] = biological target: HA H1 A/California/07/09 (Influenza A virus (A/California/07/2009(H1N1)), UniProt C3W5X2); experiment: biochemical; conditions: Competition binding (AlphaLISA), pIC50 H1 A/California/07/09
[2] = biological target: HA H1 A/New Caledonia/20/99 (Influenza A virus (A/New Caledonia/20/1999(H1N1)), UniProt Q6WG00); experiment: biochemical; conditions: Competition binding (AlphaLISA), pIC50 H1 A/New Caledonia/20/99
[3] = biological target: HA H5 A/Vietnam/1203/04 (Influenza A virus (A/Vietnam/1203/2004(H5N1)), UniProt Q5EP31); experiment: biochemical; conditions: Competition binding (AlphaLISA), pIC50 H5 A/Vietnam/1203/04
H1N1 A/California/07/09 = experiment: microbe, parasite or virus in culture; assay type: cell-based, influenza A virus; conditions: Influenza A virus, H1N1, MDCK, 96 h, read-out: Virus neutralization assay (VNA), pEC50 H1N1 A/California/07/09 (converted)
[4] = system: H1N1 A/New Caledonia/20/99; experiment: microbe, parasite or virus in culture; assay type: cell-based, influenza A virus; conditions: Influenza A virus, H1N1, MDCK, 96 h, read-out: Virus neutralization assay (VNA), pEC50 H1N1 A/New Caledonia/20/99 (converted)
H5N1 A/Vietnam/1203/04 = experiment: microbe, parasite or virus in culture; assay type: cell-based, influenza A virus; conditions: Influenza A virus, H5N1, MDCK, 96 h, read-out: Virus neutralization assay (VNA), pEC50 H5N1 A/Vietnam/1203/04, MDCK cells, 96 h, CPE by ATPlite (converted); average of repeats
in vitro = conditions: dog, Cytotoxicity (pCC50) MDCK

SMILES | pIC50 [1] | pIC50 [2] | pIC50 [3] | EC50 (H1N1 A/California/07/09) | EC50 [4] | EC50 (H5N1 A/Vietnam/1203/04) | CC50 (in vitro)
COC(=O)C(c1ccccc1)N1CCN(C(=O)c2cccc(-c3nc4ccccc4o3)c2)CC1 (stereo not shown) [Example 31] | 7.50 | 7.60 | 5.90 | 316 nM | 158 nM | 7940 nM | > 50100 nM
Cc1nnc([C@@H](c2ccccc2)N2CCN(C(=O)c3cccc(-c4nc5c(C)cccc5o4)c3)CC2)o1 [Example 32] | 7.20 | 7.10 | 5.40 | 316 nM | 158 nM | 25100 nM | 15800 nM
COC(=O)[C@@H](c1ccccc1)N1CCN(C(=O)c2cccc(-c3nc4ccccc4s3)c2)CC1 [Example 33] | 7.30 | 7.50 | 6.40 | 501 nM | 158 nM | 7940 nM | 39800 nM
O=C(c1cc(-c2nc3cc(C(F)(F)F)ccc3o2)ccn1)N1CCN(C(c2ccccc2)c2nnc(C3CC3)o2)CC1 (stereo not shown) [Example 34] | 7.50 | 7.20 | 5.90 | 126 nM | 251 nM | 12600 nM | 39800 nM
Cc1nnc(C(c2ccccc2)N2CCN(C(=O)c3cccc(-c4nc5cc(N(C)C)ccc5o4)c3)CC2)o1 (stereo not shown) [Example 35] | 7.80 | 7.80 | 6.20 | 200 nM | 158 nM | 6310 nM | 25100 nM
COc1ccc2oc(-c3cccc(C(=O)N4CCN(C(c5ccccc5)c5nnc(C)o5)CC4)c3)nc2c1 (stereo not shown) [Example 36] | 7.60 | 7.60 | 6.00 | 158 nM | 126 nM | 7940 nM | 20000 nM
COC(=O)[C@@H](c1ccccc1)N1CCN(C(=O)c2cccc(-c3nc4cc(C(F)(F)F)ccc4o3)c2)[C@H](C)C1 [Example 37] | 7.20 | 7.30 | 5.80 | 251 nM | 251 nM | 31600 nM | > 50100 nM
Cc1nnc([C@@H](c2ccccc2)N2CCN(C(=O)c3cccc(-c4ncc5ccccc5n4)c3)CC2)o1 [Example 38] | 7.30 | 7.30 | 5.70 | 316 nM | 200 nM | 7940 nM | > 50100 nM
CNc1ccc2oc(-c3cccc(C(=O)N4CCN(C(c5ccccc5)c5nnc(C)o5)CC4)c3)nc2c1 (stereo not shown) [Example 39] | 7.60 | 7.50 | 5.80 | 316 nM | 200 nM | 10000 nM | 15800 nM
Cc1nnc(C(c2ccccc2)N2CCN(C(=O)c3cc(-c4nc5cc(C(F)(F)F)ccc5o4)ccn3)CC2)o1 (stereo not shown) [Example 40] | 7.50 | 7.30 | 5.90 | 158 nM | 251 nM | 10000 nM | 12600 nM
COC(=O)C(c1ccccc1)N1CCN(C(=O)c2cccc(-c3nc4cc(C(F)(F)F)ccc4o3)c2)CC1 (stereo not shown) [Example 42] | 7.40 | 7.40 | 6.00 | 316 nM | 251 nM | 15800 nM | > 50100 nM
COC(=O)C(c1ccccc1)N1CCN(C(=O)c2cccc(-c3nc4ccncc4o3)c2)CC1 (stereo not shown) [Example 43] | 7.50 | 7.60 | 5.90 | 398 nM | 251 nM | 10000 nM | > 50100 nM
Cc1nnc(C(c2ccccc2)N2CCN(C(=O)c3cccc(-c4nc5cc(O)ccc5o4)c3)CC2)o1 (stereo not shown) [Example 44] | 7.30 | 7.30 | 5.80 | 398 nM | 316 nM | 12600 nM | 39800 nM
Cc1nnc([C@@H](c2ccccc2)N2CCN(C(=O)c3cc(-c4nc5cc(C(F)(F)F)ccc5o4)ccc3F)CC2)o1 [Example 45] | 7.20 | 7.00 | 5.10 | 251 nM | 316 nM | 50100 nM | > 50100 nM
COC(=O)[C@H](c1ccccc1)N1CCN(C(=O)c2cccc(-c3nc4cc(C(F)(F)F)ccc4o3)c2)[C@H](C(N)=O)C1 [Example 46] | 7.50 | 7.50 | 6.10 | 200 nM | 158 nM | 15800 nM | 39800 nM
Cc1nnc(C(c2ccccc2)N2CCN(C(=O)c3cccc(-c4nc5cc(F)ccc5o4)c3)CC2)o1 (stereo not shown) [Example 47] | 7.10 | 7.10 | 5.00 | 398 nM | 316 nM | 15800 nM | 31600 nM
Cc1nnc(C(c2ccccc2)N2CCN(C(=O)c3cc(-c4nc5cc(OC(F)(F)F)ccc5o4)ccn3)CC2)s1 (stereo not shown) [Example 49] | 6.60 | 6.70 | 5.40 | 501 nM | 316 nM | 31600 nM | 15800 nM
COC(=O)C(c1ccccc1)N1CCN(C(=O)c2cccc(-c3nc4cccnc4o3)c2)CC1 (stereo not shown) [Example 50] | 7.20 | 7.20 | 5.40 | 794 nM | 316 nM | 31600 nM | > 50100 nM
CC(=O)Nc1ccc2oc(-c3cccc(C(=O)N4CCN(C(c5ccccc5)c5nnc(C)o5)CC4)c3)nc2c1 (stereo not shown) [Example 51] | 7.80 | 7.90 | 6.20 | 251 nM | 251 nM | 15800 nM | 50100 nM
Cn1ccc(C(c2ccccc2)N2CCN(C(=O)c3cccc(-c4nc5cc(C(F)(F)F)ccc5o4)c3)CC2)n1 (stereo not shown) [Example 53] | 5.30 | 5.40 | 4.70 | 1000 nM | 398 nM | > 50100 nM | > 50100 nM
COC(=O)C(c1ccccc1)N1CCN(C(=O)c2cncc(-c3nc4ccc(OC)cc4s3)c2)CC1 (stereo not shown) [Example 54] | 7.00 | 7.30 | 6.40 | 1260 nM | 398 nM | 6310 nM | 50100 nM
COc1ccc2nc(-c3cccc(C(=O)N4CCN(C(C(=O)NCCCN)c5ccccc5)CC4)c3)sc2c1 (stereo not shown) [Example 55] | 7.20 | 7.30 | 6.20 | 2000 nM | 398 nM | 10000 nM | > 50100 nM
COc1ccc2nc(-c3cccc(C(=O)N4CCN(C(c5ccccc5)c5nncs5)CC4)c3)sc2c1 (stereo not shown) [Example 56] | 6.40 | 6.80 | 5.50 | 5010 nM | 398 nM | > 50100 nM | > 50100 nM
O=C(c1cccc(-c2nc3cc(C(F)(F)F)ccc3o2)c1)N1CCN(C(c2ccccc2)c2nnc(C3(O)CCC3)o2)CC1 (stereo not shown) [Example 57] | 7.30 | 7.10 | 5.60 | 251 nM | 501 nM | 20000 nM | 39800 nM
COC(=O)[C@@H](c1ccccc1)N1CCN(C(=O)c2cccc(-c3nc4cc(C(F)(F)F)ccc4o3)c2)[C@@H](CC(N)=O)C1 [Example 58] | 7.40 | 7.50 | 6.00 | 398 nM | 398 nM | 5010 nM | 39800 nM
